# Test system: UT7/EPO Cell line
# Assay: Cell Proliferation Assay (UT7/EPO, ViaLight Plus)
# Assay type: cell-based, human
# Settings: proliferative effect; compounds at 10 uM; UT7/EPO cells starved of EPO overnight; 72 hours at 37° C.; ViaLight Plus kit
# Outline: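 UT7/EPO human leukemia cells (endogenous EPO receptor, EPO-dependent growth) were EPO-starved overnight, then exposed to compounds at 10 uM for 72 hours at 37° C. Proliferation was read out by ATP-based luminescence (ViaLight Plus).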
row,Compound,Activity (%)
1,"O=C(Nc1ccc2[nH]c(-c3ccc(N4CCCC4)cc3)nc2c1)c1ccc(N2CCCC2)cc1 [Compound 225, 4-(pyrrolidin-1-yl)-N-(2-(4-(pyrrolidin-1-yl)phenyl)-1H-benzo[d]imidazol-5-yl)benzamide]",20
2,"CN(C)c1ccc(C(=O)Nc2ccc3[nH]c(-c4ccc(N(C)C)cc4)nc3c2)cc1 [Compound 206, 4-(dimethylamino)-N-(2-(4-(dimethylamino)phenyl)-1H-benzo[d]imidazol-5-yl)benzamide]",18
3,"COC(=O)c1ccc(C(=O)Nc2ccc3[nH]c(-c4ccccc4)nc3c2)cc1 [Compound 1705, Methyl 4-(2-phenyl-1H-benzimidazol-5-ylcarbamoyl)-benzoate]",12
4,"Cn1cccc1C(=O)Nc1ccc(Nc2ccc(NC(=O)c3ccc(N4CCC(O)CC4)c(F)c3)cc2)cc1 [Compound 815, N-(4-((4-(3-Fluoro-4-(4-hydroxypiperidin-1-yl)benzamido)phenyl)amino)phenyl)-1-methyl-1H-pyrrole-2-carboxamide]",17
5,"CN(C)c1ccc(C(=O)Nc2ccc3[nH]c(-c4ccc5c(ccn5C)c4)nc3c2)cc1 [Compound 1734, N-(2-(1-Methyl-1H-indol-5-yl)benzimidazol-5-yl)-4-dimethylaminobenzamide]",20
6,"O=C(Nc1ccc(-n2ncc3cc(O)ccc32)cc1)c1ccc(N2CCC(O)CC2)cc1 [Compound 990, N-(4-(5-(Hydroxy)-1H-indazol-1-yl)phenyl)-4-(4-hydroxypiperidin-1-yl)benzamide]",10
7,"CN(C)c1ccc(C(=O)N/N=C/c2cc(/C=N/NC(=O)c3ccc(N(C)C)cc3)cc(COCc3ccccc3)c2)cc1 [Compound 128, (N′,N′″E,N′,N′″E)-N′,N′″-((5-((benzyloxy)methyl)-1,3-phenylene)bis(methanylylidene))bis(4-(dimethylamino)benzohydrazide)]",20
8,O=C(O)c1ccc(-c2nc3cc(NC(=O)c4ccc(N5CCCC5)cc4)ccc3[nH]2)cc1 [Compound 1719],17
9,"CN(C)c1cccc(/C=N/NC(=O)c2ccc(NCCCC(=O)NCCO)cc2)c1 [Compound 151, (E)-4-((4-(2-(3-(dimethylamino)benzylidene)hydrazinecarbonyl)phenyl)amino)-N-(2-hydroxyethyl)butanamide]",20
10,"CC(=O)Nc1ccc2[nH]c(-c3ccc(C(=O)Nc4ccc(N5CCOCC5)cc4)cc3)nc2c1 [Compound 454, 4-(5-Acetamino-1H-benzimidazol-2-yl)-N-(4-morpholinophenyl)benzamide]",16
11,"O=C(Nc1ccc2[nH]c(-c3ccc(N4CCOCC4)cc3)nc2c1)c1ccc2nc(-c3ccc(OCCO)cc3)[nH]c2c1 [Compound 299, 2-(4-(2-hydroxyethoxy)phenyl)-N-(2-(4-morpholinophenyl)-1H-benzo[d]imidazol-5-yl)-1H-benzo[d]imidazole-6-carboxamide]",15
12,"O=C(Nc1ccc2nn(-c3ccc([N+](=O)[O-])cc3)cc2c1)c1ccc(N2CCOCC2)cc1 [Compound 540, 4-Morpholino-N-(2-(4-nitrophenyl)-2H-indazol-5-yl)benzamide]",17
13,"Cc1ccc(C(=O)Nc2ccc(Nc3ccc(NC(=O)c4ccc(N5CCC(O)CC5)cc4)cc3)c(F)c2)n1C [Compound 760, N-(3-Fluoro-4-((4-(4-(4-hydroxypiperidin-1-yl)benzamido)phenyl)amino)phenyl)-1,5-dimethyl-1H-pyrrole-2-carboxamide]",21
14,"COc1ccc(-c2nc3cc(NC(=O)c4ccc(NC(=O)c5ccc(N(C)C)cc5)cc4)ccc3[nH]2)cc1 [Compound 444, 4-(dimethylamino)-N-(4-((2-(4-methoxyphenyl)-1H-benzo[d]imidazol-5-yl)carbamoyl)phenyl)benzamide]",19
15,"O=C(Nc1ccccc1)c1ccc(-c2nc3cc(NC(=O)c4ccc(N5CCCCC5)cc4)ccc3[nH]2)cc1 [Compound 215, N-phenyl-4-(5-(4-(piperidin-1-yl)benzamido)-1H-benzo[d]imidazol-2-yl)benzamide]",16

# — US9144557B2, “Hematopoietic growth factor mimetic small molecule compounds and their uses” (Ligand Pharmaceuticals Inc., priority 2009, dated 2015)
